Patent US20080227824A1, “5-(Phenylisoxazolylethoxy) - Triazol- 3 -Yl Substituted Pyridine Compounds for the Treatment of Neurological, Psychiatric or Pain Disorders” (Astrazeneca AB, priority 2005, published 2008)

Tests used:
[1] = Moisture sorption / deliquescence of the salts at relative humidity; type: physicochemical
[2] = Intrinsic dissolution rate, low-volume rotating disc method; type: physicochemical; settings: salt made at 1 g scale from ethanol; disc 0.07 cm^2, 500 rpm, 50 mL USP Phosphate buffer pH 6.8 at 37° C
Protocol: The salt manufactured at 1 g scale from ethanol was further investigated for its intrinsic dissolution rate and compared to the free base of 4-(5-{(1R)-1-[5-(3-chlorophenyl)isoxazol-3-yl]ethoxy}-4-methyl-4H-1,2,4-triazol-3-yl)pyridine. […] Dissolution rates of the base and salt were measured with a low-volume rotating disc method. Discs were compressed from pure compound and centrically mounted in a disc holder with an exposed area of 0.07 cm^2. The disc holder rotated at 500 rpm immersed in 50 mL USP Phosphate buffer pH 6.8 at 37° C. The compound was analysed UV-Online by a Spectrophotometer with a flow cell and a peristaltic pump with continuous circulation.

relative humidity at which the salt deliquesces ([1]; salt manufactured again from ethanol at 68° C) | relative humidity at which the salt deliquesces ([1]; salt recrystallised from the oiled salt in ethanol) | intrinsic dissolution rate of the salt as compared to the free base [2] | relative humidity at which moisture sorption is increased ([1]; first batch from ethanol) | Structure (SMILES)
70-80 % RH | 60-70 % relative humidity |  |  | C[C@@H](Oc1nnc(-c2ccncc2)n1C)c1cc(-c2cccc(Cl)c2)on1.O=S(=O)(O)O [Example 18, 4-(5-{(1R)-1-[5-(3-chlorophenyl)isoxazol-3-yl]ethoxy}-4-methyl-4H-1,2,4-triazol-3-yl)pyridine sulphate]
 |  | 1000 times | 90-95 % RH | C[C@@H](Oc1nnc(-c2ccncc2)n1C)c1cc(-c2cccc(Cl)c2)on1.Cl [Example 17, 4-(5-{(1R)-1-[5-(3-chlorophenyl)isoxazol-3-yl]ethoxy}-4-methyl-4H-1,2,4-triazol-3-yl)pyridine hydrochloride]
